According to US20260226049A1, “NITROGEN-CONTAINING HETEROCYCLIC COMPOUND, PREPARATION METHOD THEREFOR, AND USE THEREOF” (BIVISION PHARMACEUTICALS, INC, priority 2023, published 2026):

What was measured:
[1] = test system: HT1080 cell line with high FAP expression; test: Therapeutic experiment of ^177Lu-labeled compounds in tumor-bearing mice; type: in vivo, Balb/c Nude mice; settings: ^177Lu-labeled compound
Procedure: Balb/c Nude tumor-bearing mice (supplier: Shanghai Alamo Pharmaceutical Technology Co., Ltd., HT1080 cell line with high FAP expression) aged approximately 6-8 weeks were randomly assigned to 13 experimental groups based on tumor volume, with 5 mice per group. Animal body weight and tumor size were measured, and administration was initiated on the grouping day starting with Group 1 (control group: normal saline). General health and appearance were observed daily after the start of the experiment. Animal body weight and tumor size were measured before each sample collection time point. Any abnormal observations detected during the entire study period were required to be recorded in the raw data.
The synthesized compounds were labeled with ^177Lu and subsequently utilized in the therapeutic assay on mouse tumor models. […] Furthermore, no significant changes in mouse body weight (FIG. 8) were observed throughout the experimental period.
• TGI^TV: Relative tumor inhibition rate (TGI^TV): TGI^TV (%)=[1−(Ti−T0)/(Vi−V0)]×100%; • (Ti: average tumor volume of the treatment group on day i of administration, TO: average tumor volume of the treatment group on day 0 of administration; Vi: average tumor volume of the solvent control group on day i of administration, V0: average tumor volume of the solvent control group on day 0 of administration) • T/C: T/C % is one of the most commonly used indicators for tumor response to treatment: T/C %=T/C*100%; • (T represents the average tumor volume of the treatment group at a specific time point; C represents the average tumor volume of the control group at a specific time point.)
The differences between the treatment groups (tumor volumes of the second, third, fourth, and fifth groups) and the control group (tumor volume of the first group) and between the tumor volumes of the first, third, fourth, and fifth groups and the tumor volume of the second group were analyzed using the two-way ANOVA Fisher's LSD test method. P-values less than 0.05 were considered statistically significant. Both statistical significance and biological significance were taken into account during the result analysis.

[2] = molecular target: T1, recombinant human fibroblast activation protein (FAP) (Homo sapiens, UniProt Q12884); test: Selective assay, protease inhibition (FAP); type: biochemical; settings: substrate Z-Gly-Pro-AMC
T1 sequence (Q12884 1-760): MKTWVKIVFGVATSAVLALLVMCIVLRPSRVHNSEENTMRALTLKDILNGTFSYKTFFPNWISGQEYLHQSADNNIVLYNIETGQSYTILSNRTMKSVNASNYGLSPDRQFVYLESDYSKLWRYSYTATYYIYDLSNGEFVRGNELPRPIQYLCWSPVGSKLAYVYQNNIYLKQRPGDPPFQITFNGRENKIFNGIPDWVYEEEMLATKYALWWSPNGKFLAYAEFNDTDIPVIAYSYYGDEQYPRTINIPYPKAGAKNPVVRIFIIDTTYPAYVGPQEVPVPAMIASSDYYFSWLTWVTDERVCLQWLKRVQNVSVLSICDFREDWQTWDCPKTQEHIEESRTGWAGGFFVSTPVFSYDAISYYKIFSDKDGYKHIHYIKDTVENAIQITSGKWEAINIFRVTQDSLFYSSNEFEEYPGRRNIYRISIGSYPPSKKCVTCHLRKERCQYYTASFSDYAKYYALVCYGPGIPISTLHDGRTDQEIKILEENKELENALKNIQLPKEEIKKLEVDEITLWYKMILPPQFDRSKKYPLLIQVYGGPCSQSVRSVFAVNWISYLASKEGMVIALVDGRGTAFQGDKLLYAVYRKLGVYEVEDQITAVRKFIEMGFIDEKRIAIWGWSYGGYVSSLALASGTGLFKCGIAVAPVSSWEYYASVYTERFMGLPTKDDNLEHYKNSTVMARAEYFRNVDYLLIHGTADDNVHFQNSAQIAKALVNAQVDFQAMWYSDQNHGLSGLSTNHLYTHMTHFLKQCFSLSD
Procedure: (§1) The specificity of the synthesized compounds against recombinant human dipeptidyl peptidase IV (DPPIV), fibroblast activation protein (FAP), or prolyl oligopeptidase (PREP) was expressed by their half-maximal inhibitory concentration (IC50) against the proteases.
(§2) 1) The synthesized compound was dissolved in DMSO to a final concentration of 100 mM.
a) For FAP assay: The test compound was diluted to a 1 mM solution using a buffer of 50 mM Tris, 140 mM NaCl at pH 7.5.
(§3) 2) The prepared 1 mM test compound solution was serially diluted (1:10) into a row of a 96-well plate using the corresponding buffer mentioned above.
(§4) 3) The substrate was prepared as a DMSO stock solution (FAP and PREP: 2.5 mM Z-Gly-Pro-AMC (VWR, Cat. No. I-1145.0050BA) in DMSO; DPPIV: 100 mM Gly-Pro-AMC (VWR, Cat. No. 100042-646) in DMSO), and subsequently the substrate stock solution was diluted 20-fold using the corresponding buffer mentioned above.
(§5) 4) The enzyme was diluted into the appropriate assay buffer. The final concentrations of DPPIV, FAP, and PREP were […], respectively. To each required well in columns 2-10, 180 μL was added separately. Column 1 (A, B, C) was prepared with 200 μL of the appropriate assay buffer as a control. […]
(§6) 7) Fluorescence was measured at λex: 380, λem: 460. […]

[3] = molecular target: recombinant human dipeptidyl peptidase IV (DPPIV) (Homo sapiens, UniProt P27487); test: Selective assay, protease inhibition (DPPIV); type: biochemical; settings: substrate Gly-Pro-AMC; read-out: pIC50 (DPPIV) (converted)
Procedure: as §1, §2
b) For DPPIV assay: The test compound was diluted to a 1 mM solution using a buffer of 25 mM Tris, 250 mM NaCl at pH 7.5.
as §3, §4, §5, §6

Chain of recombinant human dipeptidyl peptidase IV (DPPIV) (P27487 whole entry): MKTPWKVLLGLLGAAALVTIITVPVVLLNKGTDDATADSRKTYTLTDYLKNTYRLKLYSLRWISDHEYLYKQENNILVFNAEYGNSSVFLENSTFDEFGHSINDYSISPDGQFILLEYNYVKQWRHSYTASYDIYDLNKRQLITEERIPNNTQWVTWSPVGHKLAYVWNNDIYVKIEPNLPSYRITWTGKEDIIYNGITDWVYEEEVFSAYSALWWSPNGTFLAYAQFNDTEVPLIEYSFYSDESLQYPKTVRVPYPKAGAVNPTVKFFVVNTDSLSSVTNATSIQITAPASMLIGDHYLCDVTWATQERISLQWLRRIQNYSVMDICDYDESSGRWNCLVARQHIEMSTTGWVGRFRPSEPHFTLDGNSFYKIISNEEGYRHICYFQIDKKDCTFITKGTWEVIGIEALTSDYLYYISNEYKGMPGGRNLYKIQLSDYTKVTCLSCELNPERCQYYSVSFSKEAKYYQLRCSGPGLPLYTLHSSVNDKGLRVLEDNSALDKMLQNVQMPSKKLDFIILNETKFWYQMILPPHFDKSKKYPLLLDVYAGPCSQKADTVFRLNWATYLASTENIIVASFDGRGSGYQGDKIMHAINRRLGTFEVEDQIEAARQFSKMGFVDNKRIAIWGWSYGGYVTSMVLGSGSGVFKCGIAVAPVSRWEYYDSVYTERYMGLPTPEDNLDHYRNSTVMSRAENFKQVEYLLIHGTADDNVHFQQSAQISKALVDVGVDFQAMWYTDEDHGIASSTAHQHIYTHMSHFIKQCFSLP

For `N#C[C@@H]1CC(F)(F)CN1C(=O)CNC(=O)c1cccc2c1CCN(C(=O)CCC(=O)NCCNC(=O)CCC(C(=O)O)N1CCN(CC(=O)O)CCN(CC(=O)O)CCN(CC(=O)O)CC1)C2` (stereo partly drawn) [JHH5], which “therapeutic effects in mouse tumor model” value [1] is on record?
The value was “dose-dependent therapeutic effects”.

What about the IC50 [2] of the same compound?
Its IC50 is 10 to 100 nM.

What about the IC50 [3] of the same compound?
The IC50 was greater than 1000 nM.
